According to patent publication US20180327402A1, “TRIAZOLOPYRIDINE COMPOUNDS AND METHODS OF USE THEREOF” (Genentech, Inc., priority 2015, published 2018):
Where a name gives a salt, the structure may show the parent alone.

How the values were obtained:
[1] = target: T1, isolated recombinant JAK2 kinase domain (Homo sapiens, UniProt O60674); assay: JAK enzyme assay (Caliper LabChip), JAK2; type: biochemical; settings: 0.2 nM JAK2, ATP 25 μM, 22° C., 30 minutes; Morrison tight binding model
T1 construct: isolated recombinant JAK1 and JAK2 kinase domain
T1 sequence (O60674 849-1124 limits assumed): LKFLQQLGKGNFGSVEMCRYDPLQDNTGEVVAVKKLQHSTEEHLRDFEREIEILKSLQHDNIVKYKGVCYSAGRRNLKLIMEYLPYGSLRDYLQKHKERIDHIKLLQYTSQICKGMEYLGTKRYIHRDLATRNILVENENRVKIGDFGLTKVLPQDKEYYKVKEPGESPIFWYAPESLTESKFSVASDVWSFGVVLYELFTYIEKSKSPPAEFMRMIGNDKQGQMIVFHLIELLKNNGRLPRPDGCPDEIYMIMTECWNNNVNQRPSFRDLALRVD
Protocol: (§1) The activity of the isolated recombinant JAK1 and JAK2 kinase domain was measured by monitoring phosphorylation of a peptide derived from JAK3 (Val-Ala-Leu-Val-Asp-Gly-Tyr-Phe-Arg-Leu-Thr-Thr, fluorescently labeled on the N-terminus with 5-carboxyfluorescein) using the Caliper LabChip® technology (Caliper Life Sciences, Hopkinton, Mass.). To determine inhibition constants (Ki), compounds were diluted serially in DMSO and added to 50 μL kinase reactions containing purified enzyme (1.5 nM JAK1, or 0.2 nM JAK2), 100 mM HEPES buffer (pH 7.2), 0.015% Brij-35, 1.5 μM peptide substrate, ATP (25 μM), 10 mM MgCl2, 4 mM DTT at a final DMSO concentration of 2%. Reactions were incubated at 22° C. in 384-well polypropylene microtiter plates for 30 minutes and then stopped by addition of 25 μL of an EDTA containing solution (100 mM HEPES buffer (pH 7.2), 0.015% Brij-35, 150 mM EDTA), resulting in a final EDTA concentration of 50 mM. After termination of the kinase reaction, the proportion of phosphorylated product was determined as a fraction of total peptide substrate using the Caliper LabChip® 3000 according to the manufacturer's specifications. Ki values were then determined using the Morrison tight binding model (Morrison, J. F., Biochim. Biophys. Acta. 185:269-296 (1969); William, J. W. and Morrison, J. F., Meth. Enzymol., 63:437-467 (1979)) modified for ATP-competitive inhibition [Ki ═Ki,app/(1+[ATP]/Km,app)].

[2] = target: T2, isolated recombinant JAK1 kinase domain (Homo sapiens, UniProt P23458); assay: JAK enzyme assay (Caliper LabChip), JAK1; type: biochemical; settings: 1.5 nM JAK1, ATP 25 μM, 22° C., 30 minutes; Morrison tight binding model
T2 construct: isolated recombinant JAK1 and JAK2 kinase domain
T2 sequence (P23458 875-1153 limits assumed): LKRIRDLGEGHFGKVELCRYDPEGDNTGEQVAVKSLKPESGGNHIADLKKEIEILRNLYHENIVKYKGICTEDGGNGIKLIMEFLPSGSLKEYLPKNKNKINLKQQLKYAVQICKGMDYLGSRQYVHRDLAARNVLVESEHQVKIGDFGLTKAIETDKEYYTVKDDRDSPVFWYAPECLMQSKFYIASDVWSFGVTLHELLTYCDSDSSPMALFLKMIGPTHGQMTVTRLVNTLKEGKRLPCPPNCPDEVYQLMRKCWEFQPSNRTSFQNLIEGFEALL
Protocol: as §1

SMILES	Ki [1] [nM]	Ki [2] [nM]
Cn1cc(Nc2nc3c(N4CCC(c5ccc(Cl)cc5)(C(O)CN5CCOCC5)CC4)cccn3n2)cn1 (racemic) [B, 1-[4-(4-chlorophenyl)-1-[2-[(1-methylpyrazol-4-yl)amino]-[1,2,4]triazolo[1,5-a]pyridin-8-yl]-4-piperidyl]-2-morpholino-ethanol]	0.58	0.97
CN(C)CC(O)C1(c2ccc(Cl)cc2)CCN(c2cccn3nc(Nc4cnn(C)c4)nc23)CC1 (racemic) [C, 1-[4-(4-chlorophenyl)-1-[2-[(1-methylpyrazol-4-yl)amino]-[1,2,4]triazolo[1,5-a]pyridin-8-yl]-4-piperidyl]-2-(dimethylamino)ethanol]	2.9	1.8
Cn1cc(Nc2nc3c(N4CCC(CO)(c5ccc(Cl)cc5)CC4)cccn3n2)cn1 [A, [4-(4-chlorophenyl)-1-[2-[(1-methylpyrazol-4-yl)amino]-[1,2,4]triazolo[1,5-a]pyridin-8-yl]-4-piperidyl]methanol]	0.13	0.18
OCC1(c2ccc(Cl)cc2)CCN(c2cccn3nc(Nc4cnn(CC5CCNCC5)c4)nc23)CC1 [Compound 1-1, [4-(4-chloropenyl)-1-[2-[[1-(4-piperidylmethyl)pyrazol-4-yl]amino]-[1,2,4]triazolo[1,5-a]pyridin-8-yl]-4-piperidyl]methanol; hydrochloride]	0.045	0.21
OCC1(c2ccc(Cl)cc2)CCN(c2cccn3nc(Nc4cnn(CCN5CCOCC5)c4)nc23)CC1 [Compound 1-2, [4-(4-chlorophenyl)-1-[2-[[1-(2-morpholinoethyl)pyrazol-4-yl]amino]-[1,2,4]triazolo[1,5-a]pyridin-8-yl]-4-piperidyl]methanol; formic acid]	0.16	0.52
OCC1(c2ccc(Cl)cc2)CCN(c2cccn3nc(Nc4cnn(C5CCN(Cc6ccccc6)CC5)c4)nc23)CC1 [Compound 1-3, [1-[2-[[1-(1-benzyl-4-piperidyl)pyrazol-4-yl]amino]-[1,2,4]triazolo[1,5-a]pyridin-8-yl]-4-(4-chlorophenyl)-4-piperidyl]methanol; formic acid]	0.38	0.63
N#CCCN1CCC(n2cc(Nc3nc4c(N5CCC(CO)(c6ccc(Cl)cc6)CC5)cccn4n3)cn2)CC1 [Compound 1-4, 3-[4-[4-[[8-[4-(4-chlorophenyl)-4-(hydroxymethyl)-1-piperidyl]-[1,2,4]triazolo[1,5-a]pyridin-2-yl]amino]pyrazol-1-yl]-1-piperidyl]propanenitrile]	0.11	0.27
OCC1(c2ccc(Cl)cc2)CCN(c2cccn3nc(Nc4cnn(C5CCNCC5)c4)nc23)CC1 [Compound 1-5, [4-(4-chlorophenyl)-1-[2-[[1-(4-piperidyl)pyrazol-4-yl]amino]-[1,2,4]triazolo[1,5-a]pyridin-8-yl]-4-piperidyl]methanol; formic acid]	0.12	0.23
OCC1(c2ccc(Cl)cc2)CCN(c2cccn3nc(Nc4cnn(Cc5ccncc5)c4)nc23)CC1 [Compound 1-6, [4-(4-chlorophenyl)-1-[2-[[1-(4-pyridylmethyl)pyrazol-4-yl]amino]-[1,2,4]triazolo[1,5-a]pyridin-8-yl]-4-piperidyl]methanol; formic acid]	0.12	0.45
OCCCn1cc(Nc2nc3c(N4CCC(CO)(c5ccc(Cl)cc5)CC4)cccn3n2)cn1 [Compound 1-7, 3-[4-[[8-[4-(4-chlorophenyl)-4-(hydroxymethyl)-1-piperidyl]-[1,2,4]triazolo[1,5-a]pyridin-2-yl]amino]pyrazol-1-yl]propan-1-ol]	0.11	0.18
CN(C)CCCn1cc(Nc2nc3c(N4CCC(CO)(c5ccc(Cl)cc5)CC4)cccn3n2)cn1 [Compound 1-8, [4-(4-chlorophneyl)-1-[2-[[1-[3-(dimethylamino)propyl]pyrazol-4-yl]amino]-[1,2,4]triazolo[1,5-a]pyridin-8-yl]-4-piperidyl]methanol; formic acid]	0.22	0.56
CN1CCN(CCCn2cc(Nc3nc4c(N5CCC(CO)(c6ccc(Cl)cc6)CC5)cccn4n3)cn2)CC1 [Compound 1-9, [4-(4-chlorophenyl)-1-[2-[[1-[3-(4-methylpiperazin-1-yl)propyl]pyrazol-4-yl]amino]-[1,2,4]triazolo[1,5-a]pyridin-8-yl]-4-piperidyl]methanol; formic acid]	0.26	0.55
OCC1(c2ccc(Cl)cc2)CCN(c2cccn3nc(Nc4cnn(CCCN5CCOCC5)c4)nc23)CC1 [Compound 1-10, [4-(4-chlorophenyl)-1-[2-[[1-(3-morpholinopropyl)pyrazol-4-yl]amino]-[1,2,4]triazolo[1,5-a]pyridin-8-yl]-4-piperidyl]methanol; formic acid]	0.16	0.33
CCCCn1cc(Nc2nc3c(N4CCC(CO)(c5ccc(Cl)cc5)CC4)cccn3n2)cn1 [Compound 1-11, [1-[2-[(1-butylpyrazol-4-yl)amino]-[1,2,4]triazolo[1,5-a]pyridin-8-yl]-4-(4-chlorophenyl)-4-piperidyl]methanol]	0.31	0.42
CN1CCC(n2cc(Nc3nc4c(N5CCC(CO)(c6ccc(Cl)cc6)CC5)cccn4n3)cn2)CC1 [Compound 1-12, [4-(4-chlorophenyl)-1-[2-[[1-(1-methyl-4-piperidyl)pyrazol-4-yl]amino]-[1,2,4]triazolo[1,5-a]pyridin-8-yl]-4-piperidyl]methanol; formic acid]	0.19	0.27
CC(C)CCn1cc(Nc2nc3c(N4CCC(CO)(c5ccc(Cl)cc5)CC4)cccn3n2)cn1 [Compound 1-13, [4-(4-chlorophenyl)-1-[2-[(1-isopentylpyrazol-4-yl)amino]-[1,2,4]triazolo[1,5-a]pyridin-8-yl]-4-piperidyl]methanol; formic acid]	0.44	0.75
OCC1(c2ccc(Cl)cc2)CCN(c2cccn3nc(Nc4cnn(CC(F)F)c4)nc23)CC1 [Compound 1-14, [4-(4-chlorophenyl)-1-[2-[[1-(2,2-difluoroethyl)pyrazol-4-yl]amino]-[1,2,4]triazolo[1,5-a]pyridin-8-yl]-4-piperidyl]methanol]	0.13	0.16
OCCn1cc(Nc2nc3c(N4CCC(CO)(c5ccc(Cl)cc5)CC4)cccn3n2)cn1 [Compound 1-15, 2-[4-[[8-[4-(4-chlorophenyl)-4-(hydroxymethyl)-1-piperidyl]-[1,2,4]triazolo[1,5-a]pyridin-2-yl]amino]pyrazol-1-yl]ethanol]	0.089	0.11

Continued, values first:

Ki [1] [nM]	Ki [2] [nM]	SMILES
0.88	0.74	O=C(CCC(F)(F)F)N1CC=C(c2cccn3nc(Nc4cnn(CC(F)F)c4)nc23)CC1 [Compound 2-1, 1-[4-[2-[[1-(2,2-difluoroethyl)pyrazol-4-yl]amino]-[1,2,4]triazolo[1,5-a]pyridin-8-yl]-3,6-dihydro-2H-pyridin-1-yl]-4,4,4-trifluoro-butan-1-one]
0.71	0.87	O=C(CCC(F)(F)F)N1CC=C(c2cccn3nc(Nc4cnn(CCO)c4)nc23)CC1 [Compound 2-2, 4,4,4-trifluoro-1-[4-[2-[[1-(2-hydroxyethyl)pyrazol-4-yl]amino]-[1,2,4]triazolo[1,5-a]pyridin-8-yl]-3,6-dihydro-2H-pyridin-1-yl]butan-1-one]
0.32	0.63	COCCOc1ccc(COc2ccc(-c3cccn4nc(Nc5cnn(C)c5)nc34)cc2)cn1 [Compound 3-1, 8-[4-[[6-(2-methoxyethoxy)-3-pyridyl]methoxy]phenyl]-N-(1-methylpyrazol-4-yl)-[1,2,4]triazolo[1,5-a]pyridin-2-amine]
0.86	2.4	CNCCn1cc(Nc2nc3c(-c4ccc(OCc5ccc(OCCOC)nc5)cc4)cccn3n2)cn1 [Compound 3-2, 8-[4-[[6-(2-methoxyethoxy)-3-pyridyl]methoxy]phenyl]-N-[1-[2-(methylamino)ethyl]pyrazol-4-yl]-[1,2,4]triazolo[1,5-a]pyridin-2-amine]
0.2	0.82	COCCOc1ccc(COc2ccc(-c3cccn4nc(Nc5cnn(C6CCNCC6)c5)nc34)cc2)cn1 [Compound 3-3, 8-[4-[[6-(2-methoxyethoxy)-3-pyridyl]methoxy]phenyl]-N-[1-(4-piperidyl)pyrazol-4-yl]-[1,2,4]triazolo[1,5-a]pyridin-2-amine]
0.48	1.9	COCCOc1ccc(COc2ccc(-c3cccn4nc(Nc5cnn(C[C@H]6CCCN6)c5)nc34)cc2)cn1 [Compound 3-4, 8-[4-[[6-(2-methoxyethoxy)-3-pyridyl]methoxy]phenyl]-N-[1-[[(2R)-pyrrolidin-2-yl]methyl]pyrazol-4-yl]-[1,2,4]triazolo[1,5-a]pyridin-2-amine]
